Results on twelve compounds are retold here after patent US8987195B2 (priority 2012, dated 2015).

For one test, the system named is HCV genotype 1b replicon. The test can be described thus: HCV replicon assay, genotype 1b replicon EC50. The class given is cell-based, Hepatitis C virus. As to conditions: Hepatitis C virus, read-out: EC50 [gt-1b]. In short, it runs like this:
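Stable neomycin-selected genotype 1b replicon cells, some carrying luciferase:Neo^r fusion, plated without G418 with a compound dilution series and incubated 24-48 h. Read-out was RNA (^32P-probe protection or TaqMan, normalized to cyclophilin A) or luciferase activity. EC50 from four-parameter fit as percent of DMSO control.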
(In antiviral work, replicon cells carry a viral genome segment that copies itself.)

Test [1] has as its target HCV NS3/4A protease genotype 1b (Hepatitis C virus genotype 1b, UniProt P26663). The test can be described thus: HCV NS3/4A protease time-resolved fluorescence (TRF) assay, Ki against genotype 1b. As to conditions: for pIC50: IC50 [gt-1b], NS3/4A protease TRF assay, genotype 1b enzyme 0.2 nM; for IC50: IC50 [gt-1b] (nM), NS3/4A genotype 1b, enzyme 0.2 nM. The class given is biochemical. The gist of the method:
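Time-resolved fluorescence readout of NS3/4A cleavage of 25 nM europium-labelled peptide over 2.5 h at room temperature, enzyme levels set for signal/background 10–30 (0.2, 0.4, 0.025 nM for 1b, A156T, 3a). Ki by IC50=Ki(1+[S]/KM).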

SMILES strings stand for the structures. pEC50, pIC50: −log10 of the molar value. Like-named read-outs stand apart in the source and are kept apart here.

The term pEC50 denotes the negative decadic logarithm of the EC50, by convention in mol/L. What is called pIC50 is the IC50 on a negative log10 scale, so that one unit is a factor of ten. A low value points to a large IC50. Consider `CCc1nc2ccc(OC)cc2c2c1O[C@]1(CC2)C[C@H]2C(=O)N[C@]3(C(=O)NS(=O)(=O)C4(C)CC4)C[C@H]3/C=C\CCCCC[C@H](NC(=O)c3ccn(C(F)F)n3)C(=O)N2C1` [Example 468, (2R,6S,12Z,13aS,14aR,16aS)-6-({[1-(difluoromethyl)-1H-pyrazol-3-yl]carbonyl}amino)-5′-ethyl-9′-methoxy-N-[(1-methylcyclopropyl)sulfonyl]-5,16-dioxo-1,1′,2′,6,7,8,9,10,11,13a,14,15,16,16a-tetradecahydrospiro[cyclopropa[e]pyrrolo[1,2-a][1,4]diazacyclopentadecine-2,3′-pyrano[2,3-c]quinoline]-14a(5H)-carboxamide], for which, in the test on HCV genotype 1b replicon (HCV replicon, genotype 1b), the negative logarithm of the EC50 (pEC50) was 8.15. Also, the pIC50 in test [1] was 10.51.
The matching figures for `Cc1ccc2nc(C(F)(F)F)c3c(c2c1)CC[C@]1(C[C@H]2C(=O)N[C@]4(C(=O)NS(=O)(=O)C5(C)CC5)C[C@H]4/C=C\CCCCC[C@H](NC(=O)OCC(C)C)C(=O)N2C1)O3` [Example 390, 2-methylpropyl [(2R,6S,12Z,13aS,14aR,16aS)-9′-methyl-14a-{[(1-methylcyclopropyl)sulfonyl]carbamoyl}-5,16-dioxo-5′-(trifluoromethyl)-1,1′,2′,5,6,7,8,9,10,11,13a,14,14a,15,16,16a-hexadecahydrospiro[cyclopropa[e]pyrrolo[1,2-a][1,4]diazacyclopentadecine-2,3′-pyrano[2,3-c]quinolin]-6-yl]carbamate]: 7.81 and 10.82.
One may read the IC50 as the concentration at which inhibition is half-maximal. For `COc1ccc2nc(C(C)C)c3c(c2c1)C(F)(F)C[C@]1(C[C@H]2C(=O)N[C@]4(C(=O)NS(=O)(=O)C5(C)CC5)C[C@H]4/C=C\CCCCC[C@H](NC(=O)OC4CCCC4)C(=O)N2C1)O3` [Example 210, cyclopentyl [(2S,6S,12Z,13aS,14aR,16aS)-1′,1′-difluoro-9′-methoxy-14a-{[(1-methylcyclopropyl)sulfonyl]carbamoyl}-5,16-dioxo-5′-(propan-2-yl)-1,1′,2′,5,6,7,8,9,10,11,13a,14,14a,15,16,16a-hexadecahydrospiro[cyclopropa[e]pyrrolo[1,2-a][1,4]diazacyclopentadecine-2,3′-pyrano[2,3-c]quinolin]-6-yl]carbamate], the negative logarithm of the EC50 (pEC50) in the test on HCV genotype 1b replicon (genotype 1b replicon) is 8.62. Further, it took 0.008 nM to reach half-maximal inhibition in test [1] (IC50).
On the same counts, the results for `Cc1nc2ccc(OCC(F)(F)F)cc2c2c1O[C@]1(CC2)C[C@H]2C(=O)N[C@]3(C(=O)NS(=O)(=O)C4(C)CC4)C[C@H]3/C=C\CCCCC[C@H](NC(=O)OC3(C)CCCC3)C(=O)N2C1` [Example 302, 1-methylcyclopentyl [(2R,6S,12Z,13aS,14aR,16aS)-5′-methyl-14a-{[(1-methylcyclopropyl)sulfonyl]carbamoyl}-5,16-dioxo-9′-(2,2,2-trifluoroethoxy)-1,1′,2′,5,6,7,8,9,10,11,13a,14,14a,15,16,16a-hexadecahydrospiro[cyclopropa[e]pyrrolo[1,2-a][1,4]diazacyclopentadecine-2,3′-pyrano[2,3-c]quinolin]-6-yl]carbamate] are 8.38 and 0.006 nM.
The matching figures for `CC(C)C1(OC(=O)N[C@H]2CCCCC/C=C\[C@@H]3C[C@@]3(C(=O)NS(=O)(=O)C3(C)CC3)NC(=O)[C@@H]3C[C@]4(CCc5c(c(C6CC6)nc6c(F)cccc56)O4)CN3C2=O)CC1` [Example 167, 1-(propan-2-yl)cyclopropyl [(2R,6S,12Z,13aS,14aR,16aS)-5′-cyclopropyl-7′-fluoro-14a-{[(1-methylcyclopropyl)sulfonyl]carbamoyl}-5,16-dioxo-1,1′,2′,5,6,7,8,9,10,11,13a,14,14a,15,16,16a-hexadecahydrospiro[cyclopropa[e]pyrrolo[1,2-a][1,4]diazacyclopentadecine-2,3′-pyrano[2,3-c]quinolin]-6-yl]carbamate]: 8.73 and 0.02 nM.
The matching figures for `CC(C)(OC(=O)N[C@H]1CCCCC/C=C\[C@@H]2C[C@@]2(C(=O)NS(=O)(=O)C2(C)CC2)NC(=O)[C@@H]2C[C@]3(CCc4c(c(C(F)F)nc5ccccc45)O3)CN2C1=O)C(F)(F)F` [Example 309, 1,1,1-trifluoro-2-methylpropan-2-yl [(2R,6S,12Z,13aS,14aR,16aS)-5′-(difluoromethyl)-14a-{[(1-methylcyclopropyl)sulfonyl]carbamoyl}-5,16-dioxo-1,1′,2′,5,6,7,8,9,10,11,13a,14,14a,15,16,16a-hexadecahydrospiro[cyclopropa[e]pyrrolo[1,2-a][1,4]diazacyclopentadecine-2,3′-pyrano[2,3-c]quinolin]-6-yl]carbamate]: 8.71 and 0.01 nM.
As to `Cc1nc2ccccc2c2c1O[C@]1(CC2)C[C@H]2C(=O)N[C@]3(C(=O)NS(=O)(=O)C4(C)CC4)C[C@H]3/C=C\CCCCC[C@H](NC(=O)N(C)c3ccccc3)C(=O)N2C1` [Example 292, (2R,6S,12Z,13aS,14aR,16aS)-5′-methyl-N-[(1-methylcyclopropyl)sulfonyl]-6-{[methyl(phenyl)carbamoyl]amino}-5,16-dioxo-1,1′,2′,6,7,8,9,10,11,13a,14,15,16,16a-tetradecahydrospiro[cyclopropa[e]pyrrolo[1,2-a][1,4]diazacyclopentadecine-2,3′-pyrano[2,3-c]quinoline]-14a(5H)-carboxamide], the pEC50 in the test with HCV genotype 1b replicon (genotype 1b replicon, HCOOH salt) is 7.56. The concentration for half-maximal inhibition (IC50) in test [1] (HCOOH salt) came out at 0.077 nM.
As to `COc1ccc2nc(C3CC3)c3c(c2c1)CC[C@]1(C[C@H]2C(=O)N[C@]4(C(=O)NS(=O)(=O)C5(C)CC5)C[C@H]4/C=C\CCCCC[C@H](NC(=O)OC4(C)CC4)C(=O)N2C1)O3` [Example 92, 1-methylcyclopropyl [(2R,6S,12Z,13aS,14aR,16aS)-5′-cyclopropyl-9′-methoxy-14a-{[(1-methylcyclopropyl)sulfonyl]carbamoyl}-5,16-dioxo-1,1′,2′,5,6,7,8,9,10,11,13a,14,14a,15,16,16a-hexadecahydrospiro[cyclopropa[e]pyrrolo[1,2-a][1,4]diazacyclopentadecine-2,3′-pyrano[2,3-c]quinolin]-6-yl]carbamate], the pEC50 in the test on HCV genotype 1b replicon (genotype 1b replicon) is 9.36. This compound also displayed an IC50 in test [1] of 0.01 nM.
The matching figures for `Cc1nc2ccc(OC(F)(F)F)cc2c2c1O[C@]1(CC2)C[C@H]2C(=O)N[C@]3(C(=O)NS(=O)(=O)C4(C)CC4)C[C@H]3/C=C\CCCCC[C@H](NC(=O)OC3CCC3)C(=O)N2C1` [Example 180, cyclobutyl [(2R,6S,12Z,13aS,14aR,16aS)-5′-methyl-14a-{[(1-methylcyclopropyl)sulfonyl]carbamoyl}-5,16-dioxo-9′-(trifluoromethoxy)-1,1′,2′,5,6,7,8,9,10,11,13a,14,14a,15,16,16a-hexadecahydrospiro[cyclopropa[e]pyrrolo[1,2-a][1,4]diazacyclopentadecine-2,3′-pyrano[2,3-c]quinolin]-6-yl]carbamate]: 8.77 and 0.012 nM.
For `CCc1nc2ccc(OC)cc2c2c1O[C@]1(CC2)C[C@H]2C(=O)N[C@]3(C(=O)NS(=O)(=O)C4(C)CC4)C[C@H]3/C=C\CCCCC[C@H](NC(=O)O[C@@H](C)C3CC3)C(=O)N2C1` [Example 486, (1S)-1-cyclopropylethyl [(2R,6S,12Z,13aS,14aR,16aS)-5′-ethyl-9′-methoxy-14a-{[(1-methylcyclopropyl)sulfonyl]carbamoyl}-5,16-dioxo-1,1′,2′,5,6,7,8,9,10,11,13a,14,14a,15,16,16a-hexadecahydrospiro[cyclopropa[e]pyrrolo[1,2-a][1,4]diazacyclopentadecine-2,3′-pyrano[2,3-c]quinolin]-6-yl]carbamate], the negative logarithm of the EC50 (pEC50) with HCV genotype 1b replicon (HCV replicon, genotype 1b) is 7.82. The same compound showed a pIC50 in test [1] of 11.00.
As for `COc1ccc2c3c(c(C4CC4)nc2c1)O[C@]1(CC3)C[C@H]2C(=O)N[C@]3(C(=O)NS(=O)(=O)C4(C)CC4)C[C@H]3/C=C\CCCCC[C@H](NC(=O)OC3CCCC3)C(=O)N2C1` [Example 134, cyclopentyl [(2R,6S,12Z,13aS,14aR,16aS)-5′-cyclopropyl-8′-methoxy-14a-{[(1-methylcyclopropyl)sulfonyl]carbamoyl}-5,16-dioxo-1,1′,2′,5,6,7,8,9,10,11,13a,14,14a,15,16,16a-hexadecahydrospiro[cyclopropa[e]pyrrolo[1,2-a][1,4]diazacyclopentadecine-2,3′-pyrano[2,3-c]quinolin]-6-yl]carbamate], the pEC50 in the test with HCV genotype 1b replicon (genotype 1b replicon, K+ salt) is 8.55. Also, the concentration for half-maximal inhibition (IC50) in test [1] (K+ salt) turned out to be 0.014 nM.
Consider `CC1(S(=O)(=O)NC(=O)[C@@]23C[C@H]2/C=C\CCCCC[C@H](NC(=O)OC2CCCC2)C(=O)N2C[C@@]4(CCc5c(c(C(F)(F)F)nc6ccc(Cl)cc56)O4)C[C@H]2C(=O)N3)CC1` [Example 384, cyclopentyl [(2R,6S,12Z,13aS,14aR,16aS)-9′-chloro-14a-{[(1-methylcyclopropyl)sulfonyl]carbamoyl}-5,16-dioxo-5′-(trifluoromethyl)-1,1′,2′,5,6,7,8,9,10,11,13a,14,14a,15,16,16a-hexadecahydrospiro[cyclopropa[e]pyrrolo[1,2-a][1,4]diazacyclopentadecine-2,3′-pyrano[2,3-c]quinolin]-6-yl]carbamate], for which the negative-log EC50 (pEC50) with HCV genotype 1b replicon (HCV replicon, genotype 1b) is 7.70. In test [1], this compound showed a negative-log IC50 (pIC50) of 10.64.
